Test results published in patent US20250099431A1, “GLP-1R MODULATING COMPOUNDS” (priority 2020, published 2025).

What was measured:
GLP-1R = GLP-1R (Homo sapiens (Human), UniProt P43220); assay: GLP-1R activation: cAMP increase in CHO cells stably expressing GLP-1R; assay type: cell-based; conditions: cAMP increase, 10 point dose response, 30 minutes incubation at 37° C., read-out: EC50
Outline: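 CHO cells stably expressing GLP-1R were incubated 1 h at 37 °C in medium with 1% BSA, then exposed to compound in a 10-point dose response for 30 min at 37 °C. cAMP rise was detected by HTRF (Gs Dynamic kit). EC50 came from a sigmoidal fit of response against log agonist concentration.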

[1] = Microsomal stability (liver microsomal assay, mixed cofactors); predicted hepatic clearance; assay type: in vitro ADME; conditions: liver microsomes 1.0 mg protein/mL (+UDPGA +NADPH), 1 μM analyte, 37° C.; scaled with human liver weight and hepatic blood flow 1.3 L/hr/kg
Outline: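 Compound at 1 μM with human or rat pooled liver microsomes, alamethicin-treated, pH 7.4 phosphate, NADPH-regenerating plus UDPGA cofactors, 37° C, sampled 0–70 min. Parent/internal standard ratio by RapidFire QToF MS; half-life from initial log-linear decay, scaled to intrinsic and predicted hepatic clearance and hepatic extraction.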

Sequence of GLP-1R (P43220 24-463): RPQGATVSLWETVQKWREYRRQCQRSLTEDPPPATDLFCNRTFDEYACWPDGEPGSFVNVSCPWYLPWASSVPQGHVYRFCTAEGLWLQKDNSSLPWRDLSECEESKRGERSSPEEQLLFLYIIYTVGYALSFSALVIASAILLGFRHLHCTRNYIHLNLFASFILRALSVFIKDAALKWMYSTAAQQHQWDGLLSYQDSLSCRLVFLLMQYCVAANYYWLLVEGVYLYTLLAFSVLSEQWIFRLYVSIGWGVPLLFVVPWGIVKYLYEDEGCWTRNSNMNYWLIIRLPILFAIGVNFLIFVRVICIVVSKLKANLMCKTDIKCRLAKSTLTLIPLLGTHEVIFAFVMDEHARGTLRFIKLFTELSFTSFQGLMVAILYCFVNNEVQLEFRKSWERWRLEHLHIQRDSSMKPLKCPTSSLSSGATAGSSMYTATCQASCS

Compound	EC50 (GLP-1R) [nM]	Predicted Hepatic Clearance (Pred. Cl.) [1] [L/h/kg]
COCCn1c(Cc2ccc(-c3cccc4c3OC(c3ccc(C#N)cc3F)O4)cc2F)nc2ccc(C(=O)O)cc21 (single isomer, unassigned) [Example 33, 2-(4-(2-(4-cyano-2-fluorophenyl)benzo [d][1,3]dioxol-4-yl)-2-fluorobenzyl)-1-(2-methoxyethyl)-1H-benzo[d]imidazole-6-carboxylic acid]	53	0.16
CC1(c2ccc(C#N)cc2F)Oc2cccc(-c3cc(F)c(Cc4nc5ccc(C(=O)O)cc5n4C[C@@H]4CCO4)c(F)c3)c2O1 (single isomer, unassigned) [Example 92]	3.3	0.16
CC1(c2ccc(C#N)cc2F)Oc2cccc(-c3cc(F)c(Cc4nc5ccc(C(=O)O)cc5n4C[C@@H]4CCO4)c(F)c3F)c2O1 (single isomer, unassigned) [Example 95]	21	0.17
COCCn1c(Cc2ccc(-c3cccc4c3OC(c3ccccc3)C4)cc2F)nc2ccc(C(=O)O)cc21 (stereo not shown) [Example 7, 2-(2-fluoro-4-(2-phenyl-2,3-dihydrobenzofuran-7-yl)benzyl)-1-(2-methoxyethyl)-1H-benzo[d]imidazole-6-carboxylic acid]	530	0.45
CC1(c2ccc(C#N)cc2F)Oc2cccc(-c3cc(F)c(Cc4nc5ccc(C(=O)O)cc5n4C[C@@H]4CCO4)c(F)c3F)c2O1 (single isomer, unassigned) [Example 94]	0.32	0.42
CC1(c2ccc(Cl)cc2F)Oc2cccc(-c3cc(F)c(Cc4nc5ccc(C(=O)O)cc5n4C[C@@H]4CCO4)cc3F)c2O1 (single isomer, unassigned) [Example 43]	7.4	0.28
COCCn1c(Cc2c(F)cc(-c3cccc4c3O[C@@](C)(c3ccc(Cl)cc3F)O4)cc2F)nc2ccc(C(=O)O)cc21 [Example 102, 2-(4-(2-(4-chloro-2-fluorophenyl)-2-methylbenzo[d][1, 3]dioxol-4-yl)-2,6-difluorobenzyl)-1-(2-methoxyethyl)-1H-benzo[d]imidazole-6-carboxylic acid]	65	0.19
N#Cc1ccc(C2Oc3cccc(-c4cc(F)c(Cc5nc6ccc(C(=O)O)cc6n5C[C@@H]5CCO5)c(F)c4)c3O2)c(F)c1 (single isomer, unassigned) [Example 42]	1.1	0.23
CC1(c2ccc(Cl)cc2F)Oc2cccc(-c3cc(F)c(Cc4nc5c(F)cc(C(=O)O)cc5n4CC4(CC#N)CC4)c(F)c3)c2O1 (single isomer, unassigned) [Example 105, 2-(4-(2-(4-chloro-2-fluorophenyl)-2-methylbenzo[d][1, 3]dioxol-4-yl)-2,6-difluorobenzyl)-1-((1-(cyanomethyl)cyclopropyl)methyl)-4-fluoro-1H-benzo[d]imidazole-6-carboxylic acid]	2.6	0.11
CC1(c2ccc(Cl)cc2F)Oc2cccc(-c3cc(F)c(Cc4nc5c(F)cc(C(=O)O)cc5n4CC4(CC#N)CC4)c(F)c3)c2O1 (single isomer, unassigned) [Example 106, 2-(4-(2-(4-chloro-2-fluorophenyl)-2-methylbenzo[d][1, 3]dioxol-4-yl)-2,6-difluorobenzyl)-1-((1-(cyanomethyl)cyclopropyl)methyl)-4-fluoro-1H-benzo[d]imidazole-6-carboxylic acid]	0.64	0.91
COCCn1c(Cc2c(F)cc(-c3cccc4c3OC3c5ccc(Cl)cc5OC43)cc2F)nc2ccc(C(=O)O)cc21 (stereo not shown) [Example 54, 2-(4-(7-chloro-4b,9b-dihydrobenzofuro [3,2-b]benzofuran-1-yl)-2,6-difluorobenzyl)-1-(2-methoxyethyl)-1H-benzo[d]imidazole-6-carboxylic acid]	628	0.18
COCCn1c(Cc2c(F)cc(-c3cccc4c3OC(C)(c3ccc(C#N)cc3F)O4)cc2F)nc2ccc(C(=O)O)cc21 (stereo not shown) [Example 89, 2-(4-(2-(4-cyano-2-fluorophenyl)-2-methylbenzo[d][1, 3]dioxol-4-yl)-2,6-difluorobenzyl)-1-(2-methoxyethyl)-1H-benzo[d]imidazole-6-carboxylic acid]	15	0.37
CC1(c2ccc(Cl)cc2F)Oc2cccc(-c3cc(F)c(Cc4nc5ccc(C(=O)O)cc5n4CCOC(F)F)c(F)c3)c2O1 (stereo not shown) [Example 83, 2-(4-(2-(4-chloro-2-fluorophenyl)-2-methylbenzo[d][1, 3]dioxol-4-yl)-2,6-difluorobenzyl)-1-(2-(difluoromethoxy)ethyl)-1H-benzo[d]imidazole-6-carboxylic acid]	13	0.2
COCCn1c(Cc2ccc(-c3cccc4c3OC(C)(c3ccc(Cl)cc3F)O4)[nH]c2=O)nc2ccc(C(=O)O)cc21 (stereo not shown) [Example 86, 2-((6-(2-(4-chloro-2-fluorophenyl)-2-methylbenzo[d][1, 3]dioxol-4-yl)-2-oxo-1,2-dihydropyridin-3-yl)methyl)-1-(2-methoxyethyl)-1H-benzo[d]imidazole-6-carboxylic acid]	13	0.12
CC1(c2ccc(Cl)cn2)Oc2cccc(-c3cc(F)c(Cc4nc5ccc(C(=O)O)cc5n4C[C@@H]4CCO4)c(F)c3F)c2O1 (stereo partly drawn) [Example 70, 2-(4-(2-(5-chloropyridin-2-yl)-2-methylbenzo[d][1, 3]dioxol-4-yl)-2,3,6-trifluorobenzyl)-1-(((S)-oxetan-2-yl)methyl)-1H-benzo[d]imidazole-6-carboxylic acid]	0.78	0.21
CC1(c2ccc(Cl)cc2F)Oc2cccc(-c3cc(F)c(Cc4nc5ccc(C(=O)O)cc5n4CC4(CC#N)CC4)c(F)c3)c2O1 (stereo not shown) [Example 1, 2-(4-(2-(4-chloro-2-fluorophenyl)-2-methylbenzo[d][1, 3]dioxol-4-yl)-2,6-difluorobenzyl)-1-((1-(cyanomethyl)cyclo-propyl)methyl)-1H-benzo[d]imidazole-6-carboxylic acid]	0.51	<0.11
COCCn1c(Cc2c(F)cc(-c3cccc4c3OC(c3ccc(C#N)cc3F)O4)cc2F)nc2ccc(C(=O)O)cc21 (single isomer, unassigned) [Example 37, 2-(4-(2-(4-cyano-2-fluorophenyl)benzo [d][1,3]dioxol-4-yl)-2,6-difluorobenzyl)-1-(2-methoxyethyl)-1H-benzo[d]imidazole-6-carboxylic acid]	1000	0.23
COCCn1c(Cc2c(F)cc(-c3cccc4c3OC(C)(c3ccc(Cl)cn3)O4)cc2F)nc2ccc(C(=O)O)cc21 (stereo not shown) [Example 64, 2-(4-(2-(5-chloropyridin-2-yl)-2-methylbenzo[d][1, 3]dioxol-4-yl)-2,6-difluorobenzyl)-1-(2-methoxyethyl)-1H-benzo[d]imidazole-6-carboxylic acid]	111	0.22
COCCn1c(Cc2ccc(-c3cccc4c3OC(c3ccc(Cl)cn3)C4)cc2F)nc2ccc(C(=O)O)cc21 (stereo not shown) [Example 78, 2-(4-(2-(5-chloropyridin-2-yl)-2,3-dihydrobenzofuran-7-yl)-2-fluorobenzyl)-1-(2-methoxyethyl)-1H-benzo[d]imidazole-6-carboxylic acid]	1780	0.43
CC1(c2ccc(C#N)cc2F)Oc2cccc(-c3cc(F)c(Cc4nc5ccc(C(=O)O)cc5n4C[C@@H]4CCO4)c(F)c3)c2O1 (stereo partly drawn) [Example 91, 2-(4-(2-(4-cyano-2-fluorophenyl)-2-methylbenzo[d][1, 3]dioxol-4-yl)-2,6-difluorobenzyl)-1-(((S)-oxetan-2-yl)methyl)-1H-benzo[d]imidazole-6-carboxylic acid]	0.69	0.23
COCCn1c(Cc2cc(F)c(-c3cccc4c3OC(c3ccc(C#N)cc3F)O4)cc2F)nc2ccc(C(=O)O)cc21 (single isomer, unassigned) [Example 39, 2-(4-(2-(4-cyano-2-fluorophenyl)benzo [d][1,3]dioxol-4-yl)-2,5-difluorobenzyl)-1-(2-methoxyethyl)-1H-benzo[d]imidazole-6-carboxylic acid]	49	0.19
COCCn1c(Cc2c(F)cc(-c3cccc4c3OC(C)(c3ccc(Cl)cn3)O4)cc2F)nc2ccc(C(=O)O)cc21 (stereo not shown) [Example 65, 2-(4-(2-(5-chloropyridin-2-yl)-2-methylbenzo[d][1, 3]dioxol-4-yl)-2,6-difluorobenzyl)-1-(2-methoxyethyl)-1H-benzo[d]imidazole-6-carboxylic acid]	10	0.2
CC1(c2ccc(Cl)cc2F)Oc2cccc(-c3cc(F)c(Cc4nc5ccc(C(=O)O)nc5n4CC4(CF)CC4)c(F)c3)c2O1 (stereo not shown) [Example 21, 2-(4-(2-(4-chloro-2-fluorophenyl)-2-methylbenzo[d][1, 3]dioxol-4-yl)-2,6-difluorobenzyl)-3-((1-(fluoromethyl)cyclo-propyl)methyl)-3H-imidazo[4,5-b]pyridine-5-carboxylic acid]	0.86	<0.11
